# Assay results reported in US6451807B1, “Methods of treating sexual dysfunction in an individual suffering from a retinal disease, class 1 congestive heart failure, or myocardial infarction using a PDE5 inhibitor” (Lilly Icos, LLC., priority 1999, dated 2002).
# How the values were obtained:
# Assay type in all cases: in vivo, human
# healthy male volunteers = test: Clinical pharmacology drug interaction study with short-acting nitrates (Example 5)
# Experimental: This study was a randomized, double-blind, placebo-controlled, two-way crossover design clinical pharmacology drug interaction study that evaluated the hemodynamic effects of concomitant administration of a selective PDE5 inhibitor Study Drug (i.e., the compound of structural formula (I)) and short-acting nitrates on healthy male volunteers. In this study, the subjects received either the Study Drug at a dose of 10 mg or a placebo, daily for seven days. On the sixth or seventh day, the subjects received sublingual nitroglycerin (0.4 mg) while supine on a tilt table. The nitroglycerin was administered 3 hours after Study Drug dosing, and all subjects kept the nitroglycerin tablet under their tongue until it completely dissolved. The subjects were tilted to 70° head-up every 5 minutes for a total of 30 minutes with measurement of blood pressure and heart rate. There were no discontinuations among the twenty-two healthy male subjects (ages 19 to 60 years old) that entered this study.
# [1] = test system: men with mild to severe erectile dysfunction; test: Randomized, double-blind, placebo-controlled on demand study in male erectile dysfunction (Example 7); details: for patients who rated their ability to maintain an erection (IIEF Question 4) during intercourse as almost always or always / patients who rated their penetration ability (IIEF Question 3) as almost always or always: at endpoint
# Experimental: A third clinical study was a randomized, double-blind, placebo-controlled study using a compound of structural formula (I) (Study Drug) administered “on demand” to patients with male erectile dysfunction. The Study Drug was administered over a period of eight weeks in the treatment of male erectile dysfunction (ED). Erectile dysfunction (ED) is defined as the persistent inability to attain and/or maintain an erection adequate to permit satisfactory sexual performance. “On demand” dosing is defined as intermittent administration of Study Drug prior to expected sexual activity. The study population consisted of 212 men, at least 18 years of age, with mild to severe erectile dysfunction. The Study Drug was orally administered as tablets of coprecipitate made in accordance with Butler U.S. Pat. No. 5,985,326. […] Treatment with all nitrates, azole antifungals (e.g., ketoconazole or itraconazole), warfarin, erythromycin, or antiandrogens was not allowed at any time during the study. No other approved or experimental medications, treatments, or devices used to treat ED were allowed. Forty-one subjects were administered a placebo. The two primary efficacy variables were the ability of a subject to penetrate their partner and their ability to maintain an erection during intercourse, as measured by the International Index of Erectile Function (IIEF). The IIEF Questionnaire contains fifteen questions, and is a brief, reliable measure of erectile function. See R. C. Rosen et al., Urology, 49, pp. 822-830 (1997). Secondary efficacy variables were IIEF domain scores for erectile function, orgasmic function, sexual desire, intercourse satisfaction, and overall satisfaction; the patient's ability to achieve an erection, ability to insert their penis into their partner's vagina, completion of intercourse with ejaculation, satisfaction with the hardness of their erection, and overall satisfaction, all as measured by the Sexual Encounter Profile (SEP) diary; and a global assessment question asked at the end of the treatment period. The SEP is a patient diary instrument documenting each sexual encounter during the course of the study. The safety analysis of the study included all enrolled subjects, and was assessed by evaluating all reported adverse events, and changes in clinical laboratory values, vital signs, physical examination results, and electrocardiogram results.
# [2] = test system: male erectile dysfunction; test: Combined clinical studies, IIEF erectile function domain
# [3] = 10 mg daily for seven days, sublingual nitroglycerin 0.4 mg, preliminary analysis
# [4] = 10 mg daily for seven days, preliminary analysis
# [5] = 2 to 25 mg on demand, eight weeks
smiles,measurement,setting,value
"CN1CC(=O)N2[C@H](c3ccc4c(c3)OCO4)c3[nH]c4ccccc4c3C[C@@H]2C1=O [Compound 5, (6R-trans)-6-(1,3-benzodioxol-5-yl)-2,3,6,7,12,12a-hexahydro-2-methylpyrazino[1′,2′:1,6]pyrido[3,4-b]indole-1,4-dione]",serious adverse events,healthy male volunteers; [3],no serious adverse events
same,tolerability,healthy male volunteers; [3],well tolerated
same,changes in laboratory safety assessments or 12-lead ECGs,healthy male volunteers; [4],no Study Drug-associated changes in laboratory safety assessments or 12-lead ECGs
same,most common adverse events,healthy male volunteers; [4],"headache, dyspepsia, and back pain"
same,effects on mean systolic blood pressure and on mean maximal nitroglycerin-induced decrease in systolic blood pressure,"healthy male volunteers; 10 mg daily, nitroglycerin 0.4 mg 3 hours after dosing, tilt table",minimal effects
same,impact on systolic blood pressure,"healthy male volunteers; human clinical studies, administered in conjunction with organic nitrates",minimal impact on systolic blood pressure
same,patients who rated their ability to maintain an erection (IIEF Question 4) during intercourse as almost always or always,[1]; 2 mg group,19.5%
same,patients who rated their penetration ability (IIEF Question 3) as almost always or always,[1]; 2 mg group,38.1%
same,"sexual performance of men with erectile dysfunction (IIEF, patient diaries, global assessment)","[1]; 2 mg, 5 mg, 10 mg and 25 mg taken on demand","significant improvement, relative to placebo"
same,patients who rated their ability to maintain an erection (IIEF Question 4) during intercourse as almost always or always,[1]; 5 mg group,32.6%
same,patients who rated their penetration ability (IIEF Question 3) as almost always or always,[1]; 5 mg group,48.8%
same,patients who rated their ability to maintain an erection (IIEF Question 4) during intercourse as almost always or always,[1]; 10 mg group,39.0%
same,patients who rated their penetration ability (IIEF Question 3) as almost always or always,[1]; 10 mg group,51.2%
same,patients who rated their ability to maintain an erection (IIEF Question 4) during intercourse as almost always or always,[1]; 25 mg group,69.0%
same,patients who rated their penetration ability (IIEF Question 3) as almost always or always,[1]; 25 mg group,83.7%
same,adverse events related to color vision disturbances,[1]; [5],no adverse events related to color vision disturbances were reported
same,severity of adverse events,[1]; [5],mild or moderate in severity
same,change in penetration ability versus placebo (IIEF Question 3),"[1]; all dose levels (2, 5, 10, 25 mg)",statistically significant differences
same,change in penetration ability versus placebo (comparison reported for IIEF Question 4),[1]; the three higher dose levels,statistically significant differences
same,treatment of male erectile dysfunction,[2]; combined results from clinical studies,effectively treats male erectile dysfunction
same,"IIEF erectile function domain (change from baseline), Mean ± SD",[2]; unit dose 2 mg,3.9 ± 6.1
same,"IIEF erectile function domain (change from baseline), Mean ± SD",[2]; unit dose 5 mg,6.6 ± 7.1
same,"IIEF erectile function domain (change from baseline), Mean ± SD",[2]; unit dose 10 mg,7.9 ± 6.7
same,"IIEF erectile function domain (change from baseline), Mean ± SD",[2]; unit dose 25 mg,9.4 ± 7.0
same,"IIEF erectile function domain (change from baseline), Mean ± SD",[2]; unit dose 50 mg,9.8 ± 5.5
same,"IIEF erectile function domain (change from baseline), Mean ± SD",[2]; unit dose 100 mg,8.4 ± 6.1
